Values after ≈ are worked out from the molar mass of the structure shown. Where two headings read alike, the source gives them in different places.
Experiments:
Experiment in all cases: Antibacterial activity, minimum inhibition concentration (method of The Chemotherapy Association, Japan)
Assay type in all cases: cell-based
Proteus rettgeri NIH-96 = details: Providencia rettgeri
Text: (§1) The abbreviations A to P will be used in the following Tables 2 to 8.
(§2) Test results are shown in terms of the minimum inhibition concentration (µg/mℓ.) in the following Tables 2 to 8.

Proteus vulgaris OX-19 = details: Proteus vulgaris
Text: as §1, §2

[1] = tested on: Bacillus subtilis ATCC 6633; details: Bacillus subtilis
Method: (§3) Antibacterial activities of the compounds according to this invention, which had been prepared in the preceding Examples, were measured according to the method prescribed by The Committee of Amendment of "The method for measurement of the minimum inhibition concentration", The Chemotherapy Association, Japan (See Chemotherapy, Vol. 22, No. 6, pp. 1126 - 1128 (1974) and Vol. 29, No. 1, pp. 76 - 79 (1981)).
as §1, §2

[2] = tested on: Citrobactor freundii NIH-10018 -68; details: read-out: minimum inhibition concentration
Method: as §3, §1, §2

[3] = tested on: Enterobactor cloacae NCTC-9394; details: read-out: minimum inhibition concentration
Method: as §3, §1, §2

Escherichia coli NIHJC-2 = details: Escherichia coli
Method: as §3, §1, §2

Escherichia coli NIHJ = details: Escherichia coli, read-out: minimum inhibition concentration
Method: as §3, §1, §2

Klebsiella pneumoniae = details: Klebsiella pneumoniae
Method: as §3, §1, §2

[4] = tested on: Proteus mirabillis B-30-2 IFO-3849
Method: as §3, §1, §2

Proteus morgani Kono = details: read-out: minimum inhibition concentration
Method: as §3, §1, §2

[5] = tested on: Pseudomonas aeruginosa NCTC-10490; details: Pseudomonas aeruginosa
Method: as §3, §1, §2

[6] = tested on: Salmonella typhimurium 3173; details: Salmonella enterica, TYPHIMURIUM
Method: as §3, §1, §2

Serratia marcescens 1023 = tested on: Serratia marcescens 1023
Method: as §3, §1, §2

[7] = tested on: Serratia marcescens IFO-3736; details: Serratia marcescens
Method: as §3, §1, §2

[8] = tested on: Staphylococcus aureus 6538-P
Method: as §3, §1, §2

[9] = NIH96, read-out: minimum inhibition concentration, strain I: Proteus rettgeri NIH-96
[10] = OX19, read-out: minimum inhibition concentration, strain H: Proteus vulgaris OX-19
[11] = ATCC6633, read-out: minimum inhibition concentration, strain B: Bacillus subtilis ATCC 6633
[12] = NIHJC2, read-out: minimum inhibition concentration
[13] = read-out: minimum inhibition concentration, strain C: Klebsiella pneumoniae
[14] = read-out: minimum inhibition concentration, strain G: Proteus mirabillis B-30-2 IFO-3849
[15] = NCTC10490, read-out: minimum inhibition concentration
[16] = read-out: minimum inhibition concentration, strain D: Salmonella typhimurium 3173
[17] = Serratia marcescens, 1023, read-out: minimum inhibition concentration, strain E: Serratia marcescens 1023
[18] = IFO3736, read-out: minimum inhibition concentration
[19] = Staphylococcus aureus, 6538P, read-out: minimum inhibition concentration, strain A: Staphylococcus aureus 6538-P
[20] = NIH96, strain I: Proteus rettgeri NIH-96, read-out: minimum inhibition concentration
[21] = OX19, strain H: Proteus vulgaris OX-19, read-out: minimum inhibition concentration
[22] = ATCC6633, strain B: Bacillus subtilis ATCC 6633, read-out: minimum inhibition concentration
[23] = strain O: Citrobactor freundii NIH-10018 -68
[24] = strain N: Enterobactor cloacae NCTC-9394
[25] = NIHJC2, strain L: Escherichia coli NIHJC-2, read-out: minimum inhibition concentration
[26] = strain K: Escherichia coli NIHJ
[27] = strain C: Klebsiella pneumoniae, read-out: minimum inhibition concentration
[28] = strain G: Proteus mirabillis B-30-2 IFO-3849, read-out: minimum inhibition concentration
[29] = NCTC10490, strain M: Pseudomonas aeruginosa NCTC-10490, read-out: minimum inhibition concentration
[30] = strain D: Salmonella typhimurium 3173, read-out: minimum inhibition concentration
[31] = Serratia marcescens, 1023, strain E: Serratia marcescens 1023, read-out: minimum inhibition concentration
[32] = IFO3736, strain F: Serratia marcescens IFO-3736, read-out: minimum inhibition concentration
[33] = strain A: Staphylococcus aureus 6538-P, read-out: minimum inhibition concentration

Row | SMILES | MIC (Proteus rettgeri NIH-96; [9]) [µg/mL] | MIC (Proteus vulgaris OX-19; [10]) [µg/mL] | MIC [1, 11] [µg/mL] | MIC [2] [µg/mL] | MIC [3] [µg/mL] | MIC (Proteus rettgeri NIH-96; [20]) [µg/mL] | MIC (Proteus vulgaris OX-19; [21]) [µg/mL] | MIC [1, 22] [µg/mL] | MIC [2, 23] [µg/mL] | MIC [3, 24] [µg/mL] | MIC (Escherichia coli NIHJC-2; [25]) [µg/mL] | MIC (Escherichia coli NIHJ; [26]) [µg/mL] | MIC (Klebsiella pneumoniae; [27]) [µg/mL] | MIC [4, 28] [µg/mL] | MIC (Proteus morgani Kono; strain J: Proteus morgani Kono) [µg/mL] | MIC [5, 29] [µg/mL] | MIC [6, 30] [µg/mL] | MIC (Serratia marcescens 1023; [31]) [µg/mL] | MIC [7, 32] [µg/mL] | MIC [8, 33] [µg/mL] | further results
1 | CC(=O)OCC1=C(C(=O)[O-])N2C(=O)C(NC(=O)C(=CCl)c3csc(N)n3)[C@H]2SC1.[Na+] (stereo partly drawn) [Compound 20, 7-[2-chloromethylene-2-(2-aminothiazol-4-yl)acetamido]-3-acetoxymethyl-3-cephem-4-carboxylic acid sodium salt] | 0.025 | 0.2 | 6.25 | 1.56 | 0.78 | – | – | – | – | – | – | – | – | – | – | – | – | – | – | – | MIC (Escherichia coli NIHJC-2; [12]): 3.12 µg/mL; MIC (Escherichia coli NIHJ): 0.05 µg/mL; MIC (Klebsiella pneumoniae; [13]): 1.56 µg/mL; MIC [4, 14]: 1.56 µg/mL; MIC (Proteus morgani Kono): 1.56 µg/mL; MIC [5, 15]: 6.25 µg/mL; MIC [6, 16]: 3.12 µg/mL; MIC (Serratia marcescens 1023; [17]): 12.5 µg/mL; MIC [7, 18]: 6.25 µg/mL; MIC [8, 19]: 1.56 µg/mL
2 | CSc1nnc(SCC2=C(C(=O)[O-])N3C(=O)C(NC(=O)C(=CCl)c4csc(N)n4)[C@H]3SC2)s1.[Na+] (stereo partly drawn) [Compound 21, 7-[2-chloromethylene-2-(2-aminothiazol-4-yl)acetamido]-3-(2-methylthio-1,3,4-thiadiazol-5-yl)thiomethyl-3-cephem-4-carboxylic acid sodium salt] | < 0.00625 | 0.025 | 3.12 | 3.12 | 0.39 | – | – | – | – | – | – | – | – | – | – | – | – | – | – | – | MIC (Escherichia coli NIHJC-2; [12]): 1.56 µg/mL; MIC (Escherichia coli NIHJ): < 0.00625 µg/mL; MIC (Klebsiella pneumoniae; [13]): 3.12 µg/mL; MIC [4, 14]: 1.56 µg/mL; MIC (Proteus morgani Kono): 0.78 µg/mL; MIC [5, 15]: 6.25 µg/mL; MIC [6, 16]: 3.12 µg/mL; MIC (Serratia marcescens 1023; [17]): 3.12 µg/mL; MIC [7, 18]: 3.12 µg/mL; MIC [8, 19]: 0.2 µg/mL
3 | Nc1nc(C(=CCl)C(=O)NC2C(=O)N3C(C(=O)[O-])=C(C[n+]4ccccc4)CSC23)cs1 (stereo not drawn) [Compound 24, 7-[2-chloromethylene-2-(2-aminothiazol-4-yl)acetamido]-3-pyridiniummethyl-3-cephem-4-carboxylic acid betaine] | – | – | – | – | – | 0.78 (≈ 1.63 µM) | 3.12 (≈ 6.54 µM) | 25 (≈ 52.3 µM) | 25 (≈ 52.3 µM) | 12.5 (≈ 26.2 µM) | 25 (≈ 52.3 µM) | 1.56 (≈ 3.26 µM) | 25 (≈ 52.3 µM) | 12.5 (≈ 26.2 µM) | 25 (≈ 52.3 µM) | > 100 | 25 (≈ 52.3 µM) | 25 (≈ 52.3 µM) | 50 (≈ 105 µM) | 6.25 (≈ 13.1 µM) | –
4 | COc1ccc(C(C(=O)NC2C(=O)N3C(C(=O)O)=C(COC(C)=O)CS[C@H]23)=C(Cl)Cl)cc1 (stereo partly drawn) [Compound 27, 7-[2-dichloromethylene-2-(4-methoxyphenyl)acetamido]-3-acetoxymethyl-3-cephem-4-carboxylic acid] | – | – | – | – | – | 3.12 (≈ 6.23 µM) | > 100 | 3.12 (≈ 6.23 µM) | > 100 | > 100 | > 100 | 100 (≈ 199 µM) | > 100 | > 100 | > 100 | 100 (≈ 199 µM) | > 100 | 6.25 (≈ 12.5 µM) | > 100 | > 100 | –
5 | CC(=O)OCC1=C(C(=O)O)N2C(=O)C(NC(=O)C(=C(Cl)Cl)c3ccc(C)cc3)[C@H]2SC1 (stereo partly drawn) [Compound 28, 7-[2-dichloromethylene-2-(4-methylphenyl)acetamido]-3-acetoxymethyl-3-cephem-4-carboxylic acid] | – | – | – | – | – | 3.12 (≈ 6.44 µM) | 100 (≈ 206 µM) | 3.12 (≈ 6.44 µM) | > 100 | > 100 | > 100 | > 100 | > 100 | > 100 | > 100 | 50 (≈ 103 µM) | > 100 | 6.25 (≈ 12.9 µM) | > 100 | > 100 | –
